Measured values from US5834461A, “Tricyclic benzazepine vasopressin antagonists” (American Cyanamid Company, priority 1997, dated 1998).

Legend:
[1] = target: T1, human V2 vasopressin receptor (Homo sapiens, UniProt P30518); assay: Binding to Membranes of Mouse Fibroblast Cell Line (LV-2) Transfected with the cDNA Expressing the Human V2 Vasopressin Receptor; settings: for IC50: LV-2 cells
T1 construct: expressed in transfected cells; host or cells: mouse fibroblast cell line LV-2
Protocol: Flasks of 175 ml capacity, containing attached cells grown to confluence, are cleared of culture medium by aspiration. The flasks containing the attached cells are rinsed with 2×5 ml of phosphate buffered saline (PBS) and the liquid aspirated off each time. Finally, 5 ml of an enzyme free dissociation Hank's based solution (Specialty Media, Inc., Lafayette, N.J.) is added and the flasks are left undisturbed for 2 min. The content of all flasks is poured into a centrifuge tube and the cells pelleted at 300×g for 15 min. The Hank's based solution is aspirated off and the cells homogenized with a polytron at setting #6 for 10 sec in 10.0 mM Tris.HCl buffer, pH 7.4 containing 0.25M sucrose and 1.0 mM EDTA. The homogenate is centrifuged at 1500×g for 10 min to remove ghost membranes. The supernatant fluid is centrifuged at 100,000×g for 60 min to pellet the receptor protein. Upon completion, the pellet is resuspended in a small volume of 50.0 mM Tris.HCl buffer, pH 7.4. The protein content is determined by the Lowry method and the receptor membranes are suspended in 50.0 mM Tris.HCl buffer containing 0.1 mM phenylmethylsulfonylfluoride (PMSF) and 0.2% bovine serum albumin (BSA) to give 2.5 mg receptor protein per ml of suspension.
For binding experiments, the following is added in μl volume to wells of a 96 well format of a microtiter plate: 100.0 μl of 100.0 mM Tris.HCl buffer containing 0.2% heat inactivated BSA, 10.0 mM MgCl2 and a mixture of protease inhibitors: leupeptin, 1.0 mg %; aprotinin, 1.0 mg %; 1,10-phenanthroline, 2.0 mg %; trypsin inhibitor, 10.0 mg % and 0.1 mM PMSF., 20.0 μl of [^3 H] Arginine^8, vasopressin (S.A. 75.0 Ci/mmole) at 0.8 nM and the reaction initiated by the addition of 80.0 μl of tissue membranes ([…]).
The plates are left undisturbed on the bench top for 120 min to reach equilibrium. Non specific binding is assessed in the presence of 1.0 μM of unlabeled ligand, added in 20 μl volume. For test compounds, these are solubilized in 50% dimethylsulfoxide (DMSO) and added in 20.0 μl volume to a final incubation volume of 200 μl. Upon completion of binding, the content of each well is filtered off, using a Brandel® cell Harvester (Gaithersburg, Md.). The radioactivity trapped on the filter disk by the ligand-receptor complex is assessed by liquid scintillation counting in a Packard LS Counter, with an efficiency of 65% for tritium.

[2] = target: T2, vasopressin V1 receptor subtype in human platelet membranes (Homo sapiens, UniProt P37288); assay: Binding to Vasopressin V1 Receptor Subtype in Human Platelet Membranes; settings: for IC50: human platelet V1 (*)
T2 construct: tissue Hudson Valley Blood Services; host or cells: human blood platelets (frozen platelet rich plasma)
Protocol: (a) Platelet Membrane Preparation:
Frozen platelet rich plasma (PRP), received from the Hudson Valley Blood Services, are thawed to room temperature. (Platelet Source: Hudson Valley Blood Services, Westchester Medical Center, Valhalla, N.Y.). The tubes containing the PRP are centrifuged at 16,000×g for 10 min. at 4° C. and the supernatant fluid discarded. The platelets resuspended in an equal volume of 50.0 mM Tris.HCl, pH 7.5 containing 120 mM NaCl and 20.0 mM EDTA. The suspension is recentrifuged at 16,000×g for 10 min. This washing step is repeated one more time. The wash discarded and the lysed pellets homogenized in low ionic strength buffer of Tris.HCl, 5.0 mM, pH 7.5 containing 5.0 mM EDTA. The homogenate is centrifuged at 39,000×g for 10 min. The resulting pellet is resuspended in Tris.HCl buffer, 70.0 mM, pH 7.5 and recentrifuged at 39,000×g for 10 min. The final pellet is resuspended in 50.0 mM Tris.HCl buffer pH 7.4 containing 120 mM NaCl and 5.0 mM KCl to give 1.0-2.0 mg protein per ml of suspension.
(b) Binding to Vasopressin V1 Receptor Subtype in Human Platelet Membranes:
In wells of a 96 well format microtiter plate, add 100 μl of 50.0 mM Tris.HCl buffer containing 0.2% BSA and a mixture of protease inhibitors (aprotinin, leupeptin etc.). Then add 20 μl of [^3 H]Ligand (Manning or Arg^8 Vasopressin), to give final concentrations ranging from 0.01 to 10.0 nM. Initiate the binding by adding 80.0 μl of platelet suspension (approx. 100 μg protein). Mix all reagents by pipetting the mixture up and down a few times. Non specific binding is measured in the presence of 1.0 μM of unlabeled ligand (Manning or Arg^8 Vasopressin). Let the mixture stand undisturbed at room temperature for ninety (90) min. Upon this time, rapidly filter off the incubate under vacuum suction over GF/B filters, using a Brandel Harvester. The radioactivity caught on the filter disks is determined by the addition of liquid scintillant and counting in a liquid scintillator.

[3] = test system: vasopressin V2; assay: Vasopressin V2 Antagonist Activity in Conscious Hydrated Rats (diuretic effect); assay type: in vivo, normal Sprague-Dawley rats; settings: 10 mg/kg orally, AVP 0.4 μg/kg i.p.
In short: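 Conscious rats were dosed orally at 0.1–100 mg/kg, and AVP 0.4 μg/kg i.p. in peanut oil followed 1 h later. Urine volume, osmolality and Na/K/Cl were compared against AVP-treated controls, with non-AVP rats as water-loading controls.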

[4] = test system: vasopressin V1; assay: Vasopressin V1 Antagonist Activity in Conscious Rats (vasopressin vasopressor response); assay type: in vivo, rat (spontaneously hypertensive rats); settings: 10 mg/kg i.v.
In short: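 Conscious rats had the ventral caudal tail artery cannulated into the lower abdominal aorta under local procaine anesthesia, plus a caudal vein cannula for intravenous dosing. Pulsatile blood pressure was recorded via a Statham P23Db transducer. Vasopressor responses to vasopressin injections were measured before and after compound dosing, with percent antagonism calculated relative to the pre-drug response taken as 100%.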

[5] = target: T1, human V2 vasopressin receptor; assay: Binding to Membranes of Mouse Fibroblast Cell Line (LV-2) Transfected with the cDNA Expressing the Human V2 Vasopressin Receptor; settings: V2 column, printed with one *, read-out: V2, % at concentration in brackets

T1 sequence (P30518 whole entry): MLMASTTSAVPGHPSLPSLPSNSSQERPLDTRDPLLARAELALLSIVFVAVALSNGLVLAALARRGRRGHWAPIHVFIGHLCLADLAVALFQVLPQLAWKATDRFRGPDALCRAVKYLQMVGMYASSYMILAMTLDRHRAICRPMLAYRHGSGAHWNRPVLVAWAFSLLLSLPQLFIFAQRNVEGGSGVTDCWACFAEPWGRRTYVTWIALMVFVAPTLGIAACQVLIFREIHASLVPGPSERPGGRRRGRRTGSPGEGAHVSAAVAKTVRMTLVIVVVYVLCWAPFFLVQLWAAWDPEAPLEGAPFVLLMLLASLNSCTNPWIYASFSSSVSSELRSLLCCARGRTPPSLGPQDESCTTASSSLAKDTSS
T2 sequence (P37288 whole entry): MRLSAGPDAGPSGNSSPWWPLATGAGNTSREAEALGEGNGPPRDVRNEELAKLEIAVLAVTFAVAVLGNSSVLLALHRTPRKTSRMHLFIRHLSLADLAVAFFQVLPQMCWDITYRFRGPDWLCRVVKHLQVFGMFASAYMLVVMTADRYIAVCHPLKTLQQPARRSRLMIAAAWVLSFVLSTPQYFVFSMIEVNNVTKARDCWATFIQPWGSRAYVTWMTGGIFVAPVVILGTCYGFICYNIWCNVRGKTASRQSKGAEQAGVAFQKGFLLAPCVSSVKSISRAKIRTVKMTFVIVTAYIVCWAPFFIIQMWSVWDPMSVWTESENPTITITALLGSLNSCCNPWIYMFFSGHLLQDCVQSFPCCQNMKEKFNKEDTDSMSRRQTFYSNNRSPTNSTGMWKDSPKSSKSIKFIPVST

| inhibition at 1 µM ([1]; 1 μM, read-out: **V2, % at concentration in brackets) | inhibition at 1 µM ([2]; 1.5 h, 1 μM, human platelet (*), read-out: *V1, % at concentration in brackets) | IC50 [1] | IC50 [2] | inhibition at 10 µM ([2]; 1.5 h, 10 μM, human platelet (*), read-out: *V1, % at concentration in brackets) | inhibition at 10 µM [5] | Structure (SMILES) | Osmolality [3] | Urine Volume [3] | MAX % Inhibition [4] | Time of max % inhibition [4] |
| --- | --- | --- | --- | --- | --- | --- | --- | --- | --- | --- |
| 69% | 35% | – | – | – | – | O=C(O)Cn1cc2c(n1)-c1ccccc1N(C(=O)c1ccc(NC(=O)c3ccc(Cl)cc3Cl)cc1)CC2 [Example 451, 6-[4-[(2,4-Dichlorobenzoyl)amino]benzoyl]-5,6-dihydropyrazolo[4,3-d][1]benzazepine-2(4H)-acetic acid] | 989 mOsm/kg | 5.3 ml/4 hrs. | – | – |
| – | – | 0.71 nM | 1.8 nM | – | – | Cc1ccccc1C(=O)Nc1ccc(C(=O)N2Cc3sccc3Cc3ccccc32)cc1 [Example 458] | 537 mOsm/kg | 13.5 ml/4 hrs. | 77% | 180 min |
| – | – | 9 nM | 36 nM | – | – | Cc1ccccc1C(=O)Nc1ccc(C(=O)N2Cc3ccsc3Cc3ccccc32)cc1 [Example 456, N-[4-[(4,10-Dihydro-5H-thieno[3,2-c][1]benzazepin-5-yl)carbonyl]phenyl]-2-methylbenzamide] | 1209 mOsm/kg | 4.8 ml/4 hrs. | – | – |
| – | – | 28 nM | 980 nM | – | – | Cc1c(F)cccc1C(=O)Nc1ccc(C(=O)N2Cc3ccccc3Cc3ccccc32)c(Cl)c1 [Example 264, N-[4-[(6,11-Dihydro-5H-dibenz[b,e]azepin-5-yl)-carbonyl]-3-chlorophenyl]-2-methyl-3-fluorobenzamide] | 682 mOsm/kg | 12 ml/4 hrs. | – | – |
| – | – | 10 nM | 470 nM | – | – | CCOC(=O)Cn1cc2c(n1)-c1ccccc1N(C(=O)c1ccc(NC(=O)c3ccc(Cl)cc3Cl)cc1)CC2 [Example 452, Ethyl 6-[4-[(2,4-dichlorobenzoyl)amino]benzoyl]-5,6-dihydropyrazolo[4,3-d][1]benzazepine-2(4H)-acetate] | 584 mOsm/kg | 7.8 ml/4 hrs. | – | – |
| – | – | – | – | 95% | 92% | Cc1ccccc1NC(=O)Nc1ccc(C(=O)N2Cc3ccccc3Cc3ccccc32)cc1 [Example 122, 6,11-Dihydro-5-[4-[[[(2-methylphenyl)amino]carbonyl]-amino]benzoyl]-5H-dibenz[b,e]azepine] | – | – | – | – |
